Like-named read-outs stand apart in the source and are kept apart here.
Legend:
[1] = tested on: ovarian cancer (4 cell lines); experiment: CellTiter-Glo Viability Assay, ovarian cancer; assay type: cell-based; conditions: Homo sapiens, inhibition of cancer cell proliferation
CLK2 = biological target: T1, CLK2 (Homo sapiens, UniProt P49760); experiment: CLK2 kinase activity assay (Z-lyte, Ser/Thr 6 peptide); assay type: biochemical; conditions: recombinant CLK2 kinase, ATP 60 μM; read-out: EC50
T1 construct: purchased Thermo Fisher (Life Technologies), Z'-LYTE Kinase Assay Kits
T1 sequence (P49760 whole entry): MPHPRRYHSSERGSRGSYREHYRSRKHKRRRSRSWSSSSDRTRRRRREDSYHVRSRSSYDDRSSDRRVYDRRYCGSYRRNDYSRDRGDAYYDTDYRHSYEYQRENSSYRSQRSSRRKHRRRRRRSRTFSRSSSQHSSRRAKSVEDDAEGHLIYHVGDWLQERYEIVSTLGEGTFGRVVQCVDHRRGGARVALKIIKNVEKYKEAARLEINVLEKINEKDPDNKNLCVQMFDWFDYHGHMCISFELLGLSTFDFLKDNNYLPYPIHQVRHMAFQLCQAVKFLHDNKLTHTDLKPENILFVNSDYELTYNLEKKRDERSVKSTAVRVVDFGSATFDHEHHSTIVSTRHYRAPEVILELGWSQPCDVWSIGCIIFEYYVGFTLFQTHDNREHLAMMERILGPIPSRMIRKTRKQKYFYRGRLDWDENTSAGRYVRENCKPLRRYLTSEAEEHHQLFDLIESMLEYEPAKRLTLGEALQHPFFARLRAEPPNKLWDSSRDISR
Description: All reactions were performed in duplicate.

[2] = tested on: haematopoietic & lymphoid tumors (13 cell lines); experiment: CellTiter-Glo Viability Assay, haematopoietic & lymphoid tumors; assay type: cell-based; conditions: Homo sapiens, inhibition of cancer cell proliferation
[3] = tested on: pancreatic cancer (8 cell lines); experiment: CellTiter-Glo Viability Assay, pancreatic cancer; assay type: cell-based; conditions: Homo sapiens, inhibition of cancer cell proliferation
[4] = tested on: prostate cancer (5 cell lines); experiment: CellTiter-Glo Viability Assay, prostate cancer; assay type: cell-based; conditions: Homo sapiens
[5] = tested on: liver cancer (3 cell lines); experiment: CellTiter-Glo Viability Assay, liver cancer; assay type: cell-based; conditions: Homo sapiens, inhibition of cancer cell proliferation
[6] = tested on: lung cancer (4 cell lines); experiment: CellTiter-Glo Viability Assay, lung cancer; assay type: cell-based; conditions: Homo sapiens, inhibition of cancer cell proliferation
DU4475 = experiment: CellTiter-Glo Viability Assay, breast cancer; assay type: cell-based; conditions: Homo sapiens, DU-4475, 96 h; DU4475, breast cancer, four days; read-out: EC50
BT-549 = experiment: CellTiter-Glo Viability Assay, breast cancer; assay type: cell-based; conditions: Homo sapiens, 96 h; BT-549, breast cancer, four days; read-out: EC50
MDA-MB-231-Luc = experiment: CellTiter-Glo Viability Assay, breast cancer; assay type: cell-based; conditions: Homo sapiens, 96 h; MDA-MB-231-Luc, breast cancer, four days; read-out: EC50
MCF7 = experiment: CellTiter-Glo Viability Assay, breast cancer; assay type: cell-based; conditions: Homo sapiens, 96 h; MCF7, breast cancer, four days; read-out: EC50
T47D = experiment: CellTiter-Glo Viability Assay, breast cancer; assay type: cell-based; conditions: Homo sapiens, 96 h, breast cancer, four days, read-out: EC50
ZR-75-1 = experiment: CellTiter-Glo Viability Assay, breast cancer; assay type: cell-based; conditions: Homo sapiens, 96 h; ZR-75-1, breast cancer, four days; read-out: EC50
CAMA1 = experiment: CellTiter-Glo Viability Assay, breast cancer; assay type: cell-based; conditions: Homo sapiens, CAMA-1, 96 h; CAMA1, breast cancer, four days; read-out: EC50
HCC1599 = experiment: CellTiter-Glo Viability Assay, breast cancer; assay type: cell-based; conditions: Homo sapiens, 96 h; HCC1599, breast cancer, four days; read-out: EC50
[7] = tested on: colorectal cancer (6 cell lines); experiment: CellTiter-Glo Viability Assay, colorectal cancer; assay type: cell-based; conditions: Homo sapiens, inhibition of cancer cell proliferation
CLK3 = CLK3 (Homo sapiens, UniProt P49761); experiment: CLK3 kinase activity assay (Z-lyte, Ser/Thr 18 peptide)
CLK3, sequence (P49761 whole entry): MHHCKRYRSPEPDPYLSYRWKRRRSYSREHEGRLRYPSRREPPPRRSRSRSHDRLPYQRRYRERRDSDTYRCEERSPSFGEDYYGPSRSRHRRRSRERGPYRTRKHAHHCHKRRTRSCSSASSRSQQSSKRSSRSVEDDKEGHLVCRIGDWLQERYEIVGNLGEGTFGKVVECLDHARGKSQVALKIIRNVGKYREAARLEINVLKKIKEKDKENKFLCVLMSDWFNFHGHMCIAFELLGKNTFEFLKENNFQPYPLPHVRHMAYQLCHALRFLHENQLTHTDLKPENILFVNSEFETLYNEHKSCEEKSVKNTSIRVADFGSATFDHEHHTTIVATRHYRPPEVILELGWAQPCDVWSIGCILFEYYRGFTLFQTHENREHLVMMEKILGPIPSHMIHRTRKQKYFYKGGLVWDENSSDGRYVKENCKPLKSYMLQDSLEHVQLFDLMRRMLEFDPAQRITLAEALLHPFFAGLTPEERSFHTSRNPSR

all 50 cell lines = experiment: CellTiter-Glo Viability Assay, average across all cell lines; assay type: cell-based; conditions: Homo sapiens; across all 50 cell lines; read-out: average EC50 for inhibition of cancer cell proliferation
How it was run: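 Luminescent ATP read-out (CellTiter-Glo) after a 4-day compound exposure at 37° C served as the viability measure. Cells were seeded at 300-3,000/well, compound wells run in duplicate against DMSO controls, and EC50 values came from fitted dose-response curves.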

[8] = PA-1, PA1 cell line, read-out: Ovarian cancer, EC50 (μM) PA1
[9] = TOV112D, TOV-112D cell line, read-out: Ovarian cancer, EC50 (μM) TOV-112D
[10] = OV-90 cell line, read-out: Ovarian cancer, EC50 (μM) OV-90
[11] = OVCAR-3 cell line, read-out: Ovarian cancer, EC50 (μM) OVCAR-3
[12] = DND41, DND-41 cell line, read-out: Haematopoietic & Lymphoid tumors, EC50 (μM) DND-41
[13] = MV4-11, MV-4-11 cell line, read-out: Haematopoietic & Lymphoid tumors, EC50 (μM) MV-4-11
[14] = Rec1, REC-1 cell line, read-out: Haematopoietic & Lymphoid tumors, EC50 (μM) REC-1
[15] = SU-DHL-4, SUDHL4 cell line, read-out: Haematopoietic & Lymphoid tumors, EC50 (μM) SUDHL4
[16] = HL-60 cell line, read-out: Haematopoietic & Lymphoid tumors, EC50 (μM) HL-60
[17] = JM1 cell line, read-out: Haematopoietic & Lymphoid tumors, EC50 (μM) JM1
[18] = JURKAT, Clone E6-1 cell line, read-out: Haematopoietic & Lymphoid tumors, EC50 (μM) JURKAT, Clone E6-1
[19] = JeKo-1 cell line, read-out: Haematopoietic & Lymphoid tumors, EC50 (μM) JeKo-1
[20] = KASUMI-1 cell line, read-out: Haematopoietic & Lymphoid tumors, EC50 (μM) KASUMI-1
[21] = Loucy cell line, read-out: Haematopoietic & Lymphoid tumors, EC50 (μM) Loucy
[22] = MOLT-4 cell line, read-out: Haematopoietic & Lymphoid tumors, EC50 (μM) MOLT-4
[23] = TF-1 cell line, read-out: Haematopoietic & Lymphoid tumors, EC50 (μM) TF-1
[24] = TOLEDO cell line, read-out: Haematopoietic & Lymphoid tumors, EC50 (μM) TOLEDO
[25] = BXPC-3, BxPC3 cell line, read-out: Pancreatic cancer, EC50 BxPC3
[26] = CAPAN-1, Capan1 cell line, read-out: Pancreatic cancer, EC50 Capan1
[27] = Capan-2, Capan2 cell line, read-out: Pancreatic cancer, EC50 Capan2
[28] = MIA PaCa-2 cell line, read-out: Pancreatic cancer, EC50 MIA PaCa-2
[29] = PANC 05.04 cell line, read-out: Pancreatic cancer, EC50 PANC 05.04
[30] = PANC-1 cell line, read-out: Pancreatic cancer, EC50 PANC-1
[31] = UPAFII cell line, read-out: Pancreatic cancer, EC50 UPAFII
[32] = DU-145, read-out: Prostate cancer EC50 Du-145
[33] = PC-3, PC3 cell line, inhibition of cancer cell proliferation, read-out: Prostate cancer EC50 PC3
[34] = 22Rv1 cell line, inhibition of cancer cell proliferation, read-out: Prostate cancer EC50 22Rv1
[35] = LNCap clone FGC cell line, inhibition of cancer cell proliferation, read-out: Prostate cancer EC50 LNCap clone FGC
[36] = VCaP (Sigma) cell line, inhibition of cancer cell proliferation, read-out: Prostate cancer EC50 VCaP (Sigma)
[37] = SNU-398, SNU398 cell line, read-out: Liver cancer, EC50 SNU398
[38] = HEPG2 cell line, read-out: Liver cancer, EC50 HEPG2
[39] = PLC/PRF/5 cell line, read-out: Liver cancer, EC50 PLC/PRF/5
[40] = A-427, A427 cell line, read-out: Lung cancer, EC50 (μM) A427
[41] = HCC78, HCC-78 cell line, read-out: Lung cancer, EC50 (μM) HCC-78
[42] = NCI-H460 cell line, read-out: Lung cancer, EC50 (μM) NCI-H460
[43] = NCI-H522 cell line, read-out: Lung cancer, EC50 (μM) NCI-H522
[44] = HCT-116, HCT116 cell line, read-out: Colorectal cancer, EC50 (μM) HCT116
[45] = HT-29, HT29 cell line, read-out: Colorectal cancer, EC50 (μM) HT29
[46] = SW-620, SW620 cell line, read-out: Colorectal cancer, EC50 (μM) SW620
[47] = DLD-1 cell line, read-out: Colorectal cancer, EC50 (μM) DLD-1
[48] = SW48 cell line, read-out: Colorectal cancer, EC50 (μM) SW48
[49] = SW480 cell line, read-out: Colorectal cancer, EC50 (μM) SW480

CN1CCN(c2cc(Nc3ncc4c(-c5ccc6ncccc6c5)c[nH]c4n3)ccn2)CC1 [Compound 67]
EC50 [1, 8]: 0.768 µM | EC50 [1, 9]: 0.421 µM | EC50 [1, 10]: 2.86 µM | EC50 [1, 11]: 0.291 µM | EC50 (CLK2): 2.4 nM | EC50 [2, 12]: 0.221 µM | EC50 [2, 13]: 0.032 µM | EC50 [2, 14]: 0.149 µM | EC50 [2, 15]: 0.241 µM | EC50 [2, 16]: 1.54 µM | EC50 [2, 17]: 0.062 µM | EC50 [2, 18]: 0.298 µM | EC50 [2, 19]: 0.139 µM | EC50 [2, 20]: 0.11 µM | EC50 [2, 21]: 0.28 µM | EC50 [2, 22]: 0.381 µM | EC50 [2, 23]: 0.789 µM | EC50 [2, 24]: 0.108 µM | EC50 [3, 25]: 660 nM | EC50 [3, 26]: 583 nM | EC50 [3, 27]: 1120 nM | EC50 [3, 28]: 267 nM | EC50 [3, 29]: 3470 nM | EC50 [3, 30]: 1900 nM | EC50 [3, 31]: 511 nM | EC50 [4, 32]: 654 nM | EC50 [4, 33]: 860 nM | EC50 [4, 34]: 348 nM | EC50 [4, 35]: 4690 nM | EC50 [4, 36]: 756 nM | EC50 [5, 37]: 71 nM | EC50 [5, 38]: 3290 nM | EC50 [5, 39]: 3350 nM | EC50 [6, 40]: 0.502 µM | EC50 [6, 41]: 1.44 µM | EC50 [6, 42]: 0.919 µM | EC50 [6, 43]: 0.097 µM | EC50 (DU4475): 247 nM | EC50 (BT-549): 731 nM | EC50 (MDA-MB-231-Luc): 2700 nM | EC50 (MCF7): 3700 nM | EC50 (T47D): 4.96 µM | EC50 (ZR-75-1): 2920 nM | EC50 (CAMA1): 1340 nM | EC50 (HCC1599): 38 nM | EC50 [7, 44]: 0.318 µM | EC50 [7, 45]: 1.2 µM | EC50 [7, 46]: 0.156 µM | EC50 [7, 47]: 0.264 µM | EC50 [7, 48]: 0.147 µM | EC50 [7, 49]: 0.644 µM | EC50 (CLK3): 10.3 nM | EC50 (all 50 cell lines): 1070 nM

CN1CCC(Oc2ccc(C(=O)Nc3cc4cc(-c5cnn(C)c5)ccc4cn3)cc2)CC1 [Compound 68]
EC50 [1, 8]: 0.537 µM | EC50 [1, 9]: 0.327 µM | EC50 [1, 10]: 1.48 µM | EC50 [1, 11]: 0.232 µM | EC50 (CLK2): 0.6 nM | EC50 [2, 12]: 0.571 µM | EC50 [2, 13]: 0.07 µM | EC50 [2, 14]: 0.162 µM | EC50 [2, 15]: 0.523 µM | EC50 [2, 16]: 0.958 µM | EC50 [2, 17]: 0.165 µM | EC50 [2, 18]: 0.561 µM | EC50 [2, 19]: 0.176 µM | EC50 [2, 20]: 0.257 µM | EC50 [2, 21]: 0.317 µM | EC50 [2, 22]: 0.546 µM | EC50 [2, 23]: 0.649 µM | EC50 [2, 24]: 0.183 µM | EC50 [3, 25]: 443 nM | EC50 [3, 26]: 811 nM | EC50 [3, 27]: 1650 nM | EC50 [3, 28]: 279 nM | EC50 [3, 29]: 1040 nM | EC50 [3, 30]: 903 nM | EC50 [3, 31]: 435 nM | EC50 [4, 32]: 652 nM | EC50 [4, 33]: 602 nM | EC50 [4, 34]: 449 nM | EC50 [4, 35]: 651 nM | EC50 [4, 36]: 1380 nM | EC50 [5, 37]: 134 nM | EC50 [5, 38]: 597 nM | EC50 [5, 39]: 1270 nM | EC50 [6, 40]: 0.506 µM | EC50 [6, 41]: 1.14 µM | EC50 [6, 42]: 0.709 µM | EC50 [6, 43]: 0.277 µM | EC50 (DU4475): 487 nM | EC50 (BT-549): 421 nM | EC50 (MDA-MB-231-Luc): 1110 nM | EC50 (MCF7): 1820 nM | EC50 (T47D): 1.18 µM | EC50 (ZR-75-1): 1370 nM | EC50 (CAMA1): 901 nM | EC50 (HCC1599): 224 nM | EC50 [7, 44]: 0.389 µM | EC50 [7, 45]: 0.774 µM | EC50 [7, 46]: 0.206 µM | EC50 [7, 47]: 0.35 µM | EC50 [7, 48]: 0.19 µM | EC50 [7, 49]: 0.546 µM | EC50 (CLK3): 13.6 nM | EC50 (all 50 cell lines): 632 nM
